The target of assay [1] is cytochrome P450 3A4 (Homo sapiens, UniProt P08684). Nature of the assay: Inhibitory activity on cytochrome P450 3A4. The class given is in vitro ADME. Conditions: no significant inhibition.
Assay [2] has as its target cytochrome P450 2D6 (Homo sapiens, UniProt P10635). Nature of the assay: Inhibitory activity on cytochrome P450 2D6. The class given is in vitro ADME. Conditions: no significant inhibition.

The structures appear in SMILES notation. pIC50: −log10 of the molar value.

cytochrome P450 3A4, sequence (P08684 whole entry): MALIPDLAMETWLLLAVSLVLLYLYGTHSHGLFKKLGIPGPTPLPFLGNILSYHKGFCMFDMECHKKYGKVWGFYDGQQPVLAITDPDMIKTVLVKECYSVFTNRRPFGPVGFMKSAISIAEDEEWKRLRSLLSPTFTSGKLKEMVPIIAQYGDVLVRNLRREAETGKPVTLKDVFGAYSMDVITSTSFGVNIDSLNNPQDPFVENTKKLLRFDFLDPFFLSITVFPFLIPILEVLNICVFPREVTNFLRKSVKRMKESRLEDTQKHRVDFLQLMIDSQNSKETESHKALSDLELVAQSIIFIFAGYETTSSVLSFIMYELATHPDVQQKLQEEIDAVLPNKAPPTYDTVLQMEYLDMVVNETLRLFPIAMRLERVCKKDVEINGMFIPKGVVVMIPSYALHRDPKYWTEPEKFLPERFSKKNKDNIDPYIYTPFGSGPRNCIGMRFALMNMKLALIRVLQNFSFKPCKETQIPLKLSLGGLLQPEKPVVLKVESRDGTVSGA
cytochrome P450 2D6, sequence (P10635 whole entry): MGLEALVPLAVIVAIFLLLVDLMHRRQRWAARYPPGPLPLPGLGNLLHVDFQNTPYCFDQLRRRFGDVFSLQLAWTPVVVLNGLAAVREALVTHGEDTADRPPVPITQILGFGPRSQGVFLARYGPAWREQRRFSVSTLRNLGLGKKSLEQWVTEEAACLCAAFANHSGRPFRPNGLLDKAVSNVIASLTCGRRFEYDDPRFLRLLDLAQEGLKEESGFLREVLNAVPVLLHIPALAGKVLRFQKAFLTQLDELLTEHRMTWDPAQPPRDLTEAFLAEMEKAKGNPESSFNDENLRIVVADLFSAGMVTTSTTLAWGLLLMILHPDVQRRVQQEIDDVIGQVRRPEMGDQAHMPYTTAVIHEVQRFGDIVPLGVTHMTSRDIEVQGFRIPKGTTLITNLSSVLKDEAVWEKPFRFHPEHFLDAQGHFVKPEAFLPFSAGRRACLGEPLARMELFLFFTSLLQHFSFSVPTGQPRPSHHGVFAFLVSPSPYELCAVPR

The pIC50 is −log10 of the IC50, conventionally taken in molar units. A high value points to a small IC50. In the case of `CC(C)S(=O)(=O)c1nn(C)cc1Nc1nc(Nc2ccc(C3CCN(C)CC3)cc2OC2CC2)ncc1Cl` [Final product 40], the negative logarithm of the IC50 (pIC50) in assay [1] and in assay [2] was under 5.00 in each case.
As for `CC(C)CS(=O)(=O)c1nn(C)cc1Nc1nc(Nc2ccc(C3CCN(C)CC3)cc2OC2CC2)ncc1Cl` [Final product 43], the pIC50 in assay [1] and in assay [2] was under 5.00 throughout.
Turning to `CC(C)S(=O)(=O)c1nn(C2CC2)cc1Nc1nc(Nc2cc(F)c(C3CCN(C)CC3)cc2OC2CC2)ncc1Cl` [Final product 46], the pIC50 in assay [1] and in assay [2] was under 5.00 each time.
`CC(C)S(=O)(=O)c1nn(C)cc1Nc1nc(Nc2cc(Cl)c(C3CCN(C)CC3)cc2OC2CC2)ncc1Cl` [Final product 47]: the negative-log IC50 (pIC50) in assay [1] and in assay [2] was under 5.00 throughout.
`Cc1cc(Nc2ncc(Cl)c(Nc3cn(C)nc3S(=O)(=O)C(C)C)n2)c(OC2CC2)cc1C1CC(C)N(C)C(C)C1` (centres unmarked) [Final product 95]: the pIC50 in assay [1] and in assay [2] was under 5.00 in each case.
In the case of `Cc1cc(Nc2ncc(Cl)c(Nc3cn(C)nc3S(=O)(=O)C(C)C)n2)c(OC2CC2)cc1C1CCN(CCO)CC1` [Final product 133, 2-(4-(4-(5-chloro-4-(3-(isopropylsulfonyl)-1-methyl-1H-pyrazol-4-amino)pyrimidin-2-amino)-5-cyclopropoxy-2-methylphenyl)piperidin-1-yl) ethanol], the negative logarithm of the IC50 (pIC50) in assay [1] and in assay [2] was under 5.00 in each case.
Consider `Cc1cc(Nc2ncc(Cl)c(Nc3cn(C)nc3S(=O)(=O)C(C)C)n2)c(OC2CC2)cc1C1CCN(CCN(C)C)CC1` [Final product 146, 5-chloro-N^2-(2-cyclopropoxy-4-(1-(2-(dimethylamino)ethyl)piperidin-4-yl)-5-methylphenyl)-N^4-(3-(isopropylsulfonyl)-1-methyl-1H-pyrazol-4-yl)-pyrimidin-2,4-diamine], for which the negative-log IC50 (pIC50) in assay [1] and in assay [2] was under 5.00 each time.
As for `Cc1cc(Nc2ncc(Cl)c(Nc3cn(C)nc3S(=O)(=O)C(C)C)n2)c(OC2CC2)cc1C1CCN(C2COC2)CC1` [Final product 156], the pIC50 in assay [1] and in assay [2] was under 5.00 in each case.
Take `CC(=O)N1CCC(c2cc(OC3CC3)c(Nc3ncc(Cl)c(Nc4cn(C)nc4S(=O)(=O)C(C)C)n3)cc2C)CC1` [Final product 160, 1-acetyl-4-(4-(5-chloro-4-(3-(isopropylsulfonyl)-1-methyl-1H-pyrazol-4-amino)pyrimidin-2-amine)-5-cyclopropoxy-2-methylphenyl)piperidine]: the negative logarithm of the IC50 (pIC50) in assay [1] and in assay [2] was under 5.00 in each case.
On to `Cc1cc(Nc2ncc(Cl)c(Nc3cn(C)nc3S(=O)(=O)C(C)C)n2)c(OC2CC2)cc1C1CCN(C(=O)C(F)(F)F)CC1` [Final product 161, 1-trifluoroacetyl-4-(4-(5-chloro-4-(3-(isopropylsulfonyl)-1-methyl-1H-pyrazol-4-amino)pyrimidin-2-amine)-5-cyclopropoxy-2-methylphenyl)piperidine], for which the pIC50 in assay [1] and in assay [2] was under 5.00 in each case.
`Cc1cc(Nc2ncc(Cl)c(Nc3cn(C)nc3S(=O)(=O)C(C)C)n2)c(OC2CC2)cc1C1CCN(C(=O)CC#N)CC1` [Final product 166, 1-cyano acetyl-4-(4-(5-chloro-4-(3-(isopropylsulfonyl)-1-methyl-1H-pyrazol-4-amino)pyrimidin-2-amine)-5-cyclopropoxy-2-methylphenyl)piperidine]: the negative-log IC50 (pIC50) in assay [1] and in assay [2] was under 5.00 each time.
With `Cc1cc(Nc2ncc(Cl)c(Nc3cn(C)nc3S(=O)(=O)C(C)C)n2)c(OC2CC2)cc1C1CCN(S(C)(=O)=O)CC1` [Final product 167, 5-chloro-N^2-(2-cyclopropoxy-5-methyl-4-(1-methanesulfonyl-piperidin-4-yl)-phenyl)-N^4-(3-(isopropylsulfonyl)-1-methyl-1H-pyrazol-4-yl)pyrimidin-2,4-diamine], the negative logarithm of the IC50 (pIC50) in assay [1] and in assay [2] was under 5.00 in each case.
`CC(=O)N1CCN([C@H]2CC[C@H](c3cc(OC4CC4)c(Nc4ncc(Cl)c(Nc5cn(C)nc5S(=O)(=O)C(C)C)n4)cc3C)CC2)CC1` [Final product 204]: the negative logarithm of the IC50 (pIC50) in assay [1] and in assay [2] was under 5.00 throughout.

For the origin of these results see patent publication US10023593B2, “ALK kinase inhibitor, and preparation method and uses thereof” (BEIJING PEARL BIOTECHNOLOGY LIMITED LIABILITY COMPANY, priority 2014, dated 2018).
